Measured values as given in PubChem BioAssay (NCI).
Several values for one entry are separate records, joined by “and”; a condition that tells them apart may be missing. Equal entries are not always repeated.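 1) Cells in 96-well plates. 2) Compound, 48 h, 5 concentrations. 3) Linear interpolation between surrounding doses. 4) Unreached endpoint = highest concentration. GI50 = concentration required for 50% inhibition of growth. TGI: concentration producing complete growth inhibition.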

Legend:
[1] = tested on: P388 leukemia; assay: NCI tumour cell line growth inhibition, 48 h
[2] = tested on: P388/ADR leukemia; assay: NCI tumour cell line growth inhibition, 48 h

**Q.** What does the source list for `CSC1SCC2C(=O)N(C)C(C(C)C)C(=O)OCC(NC(=O)c3cnc4ccccc4n3)C(=O)NC(C)C(=O)N(C)C1C(=O)N(C)C(C(C)C)C(=O)OCC(NC(=O)c1cnc3ccccc3n1)C(=O)NC(C)C(=O)N2C` (stereo not drawn)?
**A.** GI50 [1]: 0.00499 nM; GI50 [2]: 7.5 nM; TGI [2]: 49 nM and 34.8 nM
